Data from article PMC4405029 (Bioorganic & medicinal chemistry letters, 2015).

Assays:
Assay in all cases: Electrical cell-substrate impedance sensing
Assay type in all cases: cell-based
recombinant EP3 receptor = molecular target: T1, recombinant EP3 receptor (Homo sapiens, UniProt P43115); conditions: ECIS, EP3 expressed in CHO cells
T1 sequence (P43115 1-390): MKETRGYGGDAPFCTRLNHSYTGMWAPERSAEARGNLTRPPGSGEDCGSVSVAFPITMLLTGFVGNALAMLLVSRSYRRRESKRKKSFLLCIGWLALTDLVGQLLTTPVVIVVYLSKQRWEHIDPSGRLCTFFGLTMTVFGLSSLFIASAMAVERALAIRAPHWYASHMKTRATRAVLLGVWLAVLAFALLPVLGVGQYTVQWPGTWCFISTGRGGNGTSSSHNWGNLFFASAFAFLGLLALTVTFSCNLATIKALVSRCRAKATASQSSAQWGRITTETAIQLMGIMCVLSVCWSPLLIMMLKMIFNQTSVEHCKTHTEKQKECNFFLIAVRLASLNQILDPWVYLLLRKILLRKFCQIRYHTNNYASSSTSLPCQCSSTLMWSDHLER

recombinant EP1 receptor = molecular target: T2, recombinant EP1 receptor (Homo sapiens, UniProt P34995); conditions: ECIS, EP1 expressed in CHO cells
T2 sequence (P34995 1-402): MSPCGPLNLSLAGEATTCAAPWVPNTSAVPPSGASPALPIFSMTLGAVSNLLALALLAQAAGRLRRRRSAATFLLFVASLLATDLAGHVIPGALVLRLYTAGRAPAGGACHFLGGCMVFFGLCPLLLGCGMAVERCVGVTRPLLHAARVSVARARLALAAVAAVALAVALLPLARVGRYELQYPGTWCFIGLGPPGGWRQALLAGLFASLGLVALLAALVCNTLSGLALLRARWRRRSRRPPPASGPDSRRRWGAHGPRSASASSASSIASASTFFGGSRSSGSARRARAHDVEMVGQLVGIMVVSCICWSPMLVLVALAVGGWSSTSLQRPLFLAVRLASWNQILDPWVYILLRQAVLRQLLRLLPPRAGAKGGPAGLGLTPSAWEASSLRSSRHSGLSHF

recombinant EP4 receptor = conditions: ECIS, EP4 expressed in CHO cells

SMILES	Activation of EP3 receptor (cell impedance) (recombinant EP3 receptor)	Activation of EP1 receptor (cell impedance) (recombinant EP1 receptor)	Activation of EP4 receptor (cell impedance) (recombinant EP4 receptor)
O=C(CCC/C=C\C[C@H]1C(=O)C[C@@H](O)[C@@H]1/C=C/[C@@H](O)CCc1ccccc1)NCCO [12a]	did not activate	did not activate	did not activate
CCCCC[C@H](O)/C=C/[C@H]1[C@H](O)CC(=O)[C@@H]1C/C=C\CCCC(=O)NCCO [PGE2-EA, prostaglandin-ethanolamide]	did not activate	did not activate	did not activate
CCCCC[C@H](O)/C=C/[C@H]1[C@H](O)CC(=O)[C@@H]1C/C=C\CCCC(=O)O [PGE2]	rapid change in impedance	rapid change in impedance	rapid change in impedance
